Experimental data taken from PubChem BioAssay AID330 (DTP/NCI, 2004).
“And” between values parts separate entries of the source, which are not always exact repeats. Identical values can stand only once. Inconclusive results and toxic doses are left out. How the source made its calls: active means survival T/C of 150% or more; inactive means T/C below 125% in these data.

Tested on: P388 leukemia ip, CD2F1 mice, survival T/C
Assay: NCI In Vivo Anticancer Drug Screen. Data for tumor model P388 Leukemia (intraperitoneal) in CD2F1 (CDF1) mice
Settings: endpoint: median survival time, higher = longer survival
Summary of the method: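 Mice carrying the transplanted tumor received test compound or vehicle. Survival was recorded in each group, and the value is the treated-group measurement divided by that of the vehicle-treated control group.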

[1] = dose: 50.0 mg/kg/injection, schedule: Q01DX005 (ip), vehicle: saline with Tween-80
[2] = dose: 100.0 mg/kg/injection, schedule: Q01DX005 (ip), vehicle: saline with Tween-80
[3] = dose: 200.0 mg/kg/injection, schedule: Q01DX005 (ip), vehicle: saline with Tween-80
[4] = dose: 60.0 mg/kg/injection, schedule: Q01DX005 (ip), vehicle: Klucel (hydroxypropylcellulose) (HPC)
[5] = dose: 120.0 mg/kg/injection, schedule: Q01DX005 (ip), vehicle: Klucel (hydroxypropylcellulose) (HPC)
[6] = dose: 240.0 mg/kg/injection, schedule: Q01DX005 (ip), vehicle: Klucel (hydroxypropylcellulose) (HPC)
[7] = dose: 50.0 mg/kg/injection, schedule: Q01DX005 (ip), vehicle: Klucel (hydroxypropylcellulose) (HPC)
[8] = dose: 100.0 mg/kg/injection, schedule: Q01DX005 (ip), vehicle: Klucel (hydroxypropylcellulose) (HPC)
[9] = dose: 200.0 mg/kg/injection, schedule: Q01DX005 (ip), vehicle: Klucel (hydroxypropylcellulose) (HPC)
[10] = dose: 50.0 mg/kg/injection, schedule: Q01DX009 (ip), vehicle: saline with Tween-80
[11] = dose: 100.0 mg/kg/injection, schedule: Q01DX009 (ip), vehicle: saline with Tween-80
[12] = dose: 200.0 mg/kg/injection, schedule: Q01DX009 (ip), vehicle: saline with Tween-80
[13] = dose: 50.0 mg/kg/injection, schedule: Q01DX009 (ip), vehicle: Klucel (hydroxypropylcellulose) (HPC)
[14] = dose: 100.0 mg/kg/injection, schedule: Q01DX009 (ip), vehicle: Klucel (hydroxypropylcellulose) (HPC)
[15] = dose: 50.0 mg/kg/injection, schedule: Q01DX009 (ip), vehicle: saline
[16] = dose: 100.0 mg/kg/injection, schedule: Q01DX009 (ip), vehicle: saline
[17] = dose: 200.0 mg/kg/injection, schedule: Q01DX009 (ip), vehicle: saline

Measured: T/C

O=C(Nc1cccc2ccccc12)ON1C(=O)c2ccccc2C1=O
inactive: dose: 25.0 mg/kg/injection, schedule: Q01DX005 (ip), vehicle: saline with Tween-80 92 % of control | [1] 99 % of control and 113 % of control and 96 % of control | [2] 110 % of control and 119 % of control

O=c1[nH]cnc2nc(N3CCOCC3)sc12
inactive: [1] 93 % of control | dose: 120.0 mg/kg/injection, schedule: Q01DX005 (ip), vehicle: saline with Tween-80 96 % of control | [3] 95 % of control

CN(C)CCN(C)CC(C)(C)C(=O)/C=C/c1ccccc1
inactive: dose: 60.0 mg/kg/injection, schedule: Q01DX005 (ip), vehicle: saline 106 % of control | dose: 120.0 mg/kg/injection, schedule: Q01DX005 (ip), vehicle: saline 107 % of control

CNC(=O)NC(c1ccc(F)cc1)c1cc2c(cc1O)OCO2 (configuration not stated)
inactive: [4] 96 % of control | [5] 96 % of control | [6] 87 % of control

COc1c2c(c(OC)c3c1C(=O)c1ccccc1C3=O)CC=CC2
inactive: dose: 1.56 mg/kg/injection, schedule: Q01DX009 (ip), vehicle: water 101 % of control | dose: 3.13 mg/kg/injection, schedule: Q01DX009 (ip), vehicle: water 104 % of control | dose: 6.25 mg/kg/injection, schedule: Q01DX009 (ip), vehicle: water 103 % of control | dose: 12.5 mg/kg/injection, schedule: Q01DX009 (ip), vehicle: water 103 % of control | dose: 25.0 mg/kg/injection, schedule: Q01DX009 (ip), vehicle: water 100 % of control

CCOC(=O)COc1ccc(Cc2ccc3c(c2)OCO3)cc1C
inactive: [1] 97 % of control | [2] 97 % of control | [3] 93 % of control

Cc1cccc([B-]23OCC[N+]2(CNC(=O)c2ccccc2O)CCO3)c1 (configuration not stated)
inactive: [7] 105 % of control | [8] 104 % of control | [9] 104 % of control

CN(N=O)C(=O)NCCNC(=O)C1OC(n2cnc3c(=O)[nH]cnc32)C(O)C1O (configuration not stated)
inactive: [2] 106 % of control | [3] 109 % of control | dose: 400.0 mg/kg/injection, schedule: Q01DX005 (ip), vehicle: saline with Tween-80 115 % of control

[NH-]CC([NH-])=O.[NH-]CC([NH-])=O.[Ni]
inactive: dose: 1.0 mg/kg/injection, schedule: Q01DX009 (ip), vehicle: saline 100 % of control | dose: 2.0 mg/kg/injection, schedule: Q01DX009 (ip), vehicle: saline 95 % of control | dose: 4.0 mg/kg/injection, schedule: Q01DX009 (ip), vehicle: saline 100 % of control | dose: 8.0 mg/kg/injection, schedule: Q01DX009 (ip), vehicle: saline 100 % of control

COc1ccc(C2OCOCC2C)cc1 (configuration not stated)
inactive: dose: 25.0 mg/kg/injection, schedule: Q01DX009 (ip), vehicle: saline with Tween-80 103 % of control | [10] 100 % of control | [11] 103 % of control | [12] 101 % of control | dose: 400.0 mg/kg/injection, schedule: Q01DX009 (ip), vehicle: saline with Tween-80 95 % of control

CC(C)(C)OC(=O)NC(Cc1cnc[nH]1)C(=O)O (configuration not stated)
inactive: [7] 90 % of control | [8] 99 % of control | [9] 98 % of control

CCOC(=O)NN(CC(=O)OCc1ccccc1)N=O
inactive: dose: 12.5 mg/kg/injection, schedule: Q01DX009 (ip), vehicle: other 109 % of control | dose: 25.0 mg/kg/injection, schedule: Q01DX009 (ip), vehicle: other 94 % of control | dose: 50.0 mg/kg/injection, schedule: Q01DX009 (ip), vehicle: other 100 % of control | dose: 100.0 mg/kg/injection, schedule: Q01DX009 (ip), vehicle: other 102 % of control | dose: 200.0 mg/kg/injection, schedule: Q01DX009 (ip), vehicle: other 98 % of control

O=C(Nc1cccc(Cl)c1)N1CCNC1=S
inactive: [13] 102 % of control | [14] 104 % of control

O=C1C(c2ccccc2)SC(=S)N1c1ccccc1 (configuration not stated)
inactive: [15] 105 % of control | [16] 92 % of control | [17] 89 % of control

Cc1cccnc1OCC(=O)O
inactive: [4] 100 % of control and 93 % of control | [5] 103 % of control and 90 % of control | [6] 100 % of control and 92 % of control

COC(=O)C1c2ccccc2CC(=O)N1NC(=O)c1ccccc1 (configuration not stated)
inactive: [13] 98 % of control | [14] 94 % of control

CCOC(=O)CS(=O)(=O)CCCS(=O)(=O)CC(=O)OCC
inactive: [15] 97 % of control | [16] 96 % of control | [17] 94 % of control

O=c1[nH]c2ccccc2n1CCCN1CCN(C(c2ccccc2)c2ccccc2)CC1
inactive: [10] 102 % of control | [11] 94 % of control | [12] 95 % of control

COc1ccc(C2OC3=Nc4ccccc4NC3C2=O)cc1OC (configuration not stated)
inactive: [4] 107 % of control | [5] 105 % of control | [6] 100 % of control

NC(=O)NC1CC2CCC1C2 (configuration not stated)
inactive: dose: 50.0 mg/kg/injection, schedule: Q01DX005 (ip), vehicle: saline 101 % of control | dose: 100.0 mg/kg/injection, schedule: Q01DX005 (ip), vehicle: saline 101 % of control | dose: 200.0 mg/kg/injection, schedule: Q01DX005 (ip), vehicle: saline 105 % of control

CC(C)N=Cc1ccccc1O.CC(C)N=Cc1ccccc1O.[Co]
inactive: dose: 12.5 mg/kg/injection, schedule: Q04DX003 (ip), vehicle: saline sonified 110 % of control | dose: 25.0 mg/kg/injection, schedule: Q04DX003 (ip), vehicle: saline sonified 100 % of control | dose: 50.0 mg/kg/injection, schedule: Q04DX003 (ip), vehicle: saline sonified 105 % of control
